Assay results from US20180008569A1, “PROSTAGLANDIN TRANSPORTER INHIBITORS FOR INHIBITING OVULATION” (TEL HASHOMER MEDICAL RESEARCH INFRASTRUCTURE AND SERVICES …, priority 2015, published 2018).
Marks after values point to notes of the source that are not given here.

Key:
PGT [1] = biological target: PGT (Homo sapiens, UniProt Q92959); test: PGE2 concentration in media of MGCs by enzyme immunoassay (EIA); format: cell-based; parameters: basal media concentration of PGE2: dose or concentration left out as unconfirmed
Experimental: The concentration of PGE2 in the media was then measured by an enzyme immunoassay (EIA).

PGT [2] = biological target: T1, PGT (Mus musculus, UniProt Q9EPT5); test: Ovarian morphology (histology) in superovulated mice
PGT [3] = biological target: T1, PGT; test: Ovulated oocyte count in PMSG-primed/hCG-triggered immature female mice; format: in vivo; parameters: from tissue; host or cells: whole animal: PMSG-primed/hCG-triggered immature female mice (ovary)
[4] = test system: PGE2 downstream target genes; test: Ovarian expression of ovulatory cascade, PG receptor and PG metabolism genes by qPCR in PMSG-primed/hCG+DIDS-treated mice; format: in vivo
Experimental: To characterize the ovulation-blocking effect of PGT at the molecular level, the effect of DIDS on the LH/CGR dependent activities was evaluated. Key representative genes of the ovulatory cascade were studied, including, oocyte maturation genes: amphiregulin (AREG), epiregulin (EREG), progesterone receptor (PR); cumulus expansion genes: tumor necrosis factor alpha-induced protein (TNFAIP6); follicular rupture related genes: disintegrin and metalloproteinase with thrombospondin motifs 1 (ADAMTS1), cathepsin L (CTSL); the ovulatory related genes: follicle stimulating hormone receptor (FSHR) and luteinizing hormone/chorionic gonadotropin receptor (LHCGR); and steroidogenesis related genes: steroidogenic acute regulatory protein (StAR) and cholesterol side cleavage chain (p450SCC). After total RNA was extracted from the ovaries of PMSG-primed/hCG+DIDS-treated mice and converted to cDNA, the expression of genes of interest was quantified by qPCR.

[5] = Serum progesterone levels (corpus luteum function) in PMSG-primed/hCG-triggered mice; format: in vivo; conditions: concurrent treatment with DIDS, 24 hours post-hCG
Experimental: In order to assess corpus luteum function, serum progesterone levels were measured in PMSG-primed/hCG-triggered mice in the absence or presence of DIDS.

PGT [6] = biological target: T1, PGT; test: Oocyte maturation and cumulus expansion in vivo in mice; parameters: from tissue; host or cells: whole animal: PMSG-primed/hCG-triggered immature female mice (ovary)
From the text: Ovulated COCs from hCG-treated mice were collected from the ampulla of the oviduct.

PGT transcripts in MGCs = test: PGT transcripts (qPCR) in cultured FSH-pretreated human mural granulosa cells; conditions: for FSK-induced upregulation of PGT expression: then FSK 10 μM 24 hours; for hCG-induced upregulation of PGT expression: then hCG 1U/ml 24 hours
Experimental: FSH-pretreated MGCs were then exposed to vehicle (PBS) or AREG for 24 hours. PGT was quantified by qPCR and normalized to/3-actin expression. Data represent the mean±SEM of three independent experiments.

EP receptor = test: Intracellular cAMP in MGCs after PGE2 pretreatment (EP receptor desensitization); format: cell-based, human; conditions: pretreated with 10 μM PGE2 10 min, washed, 10 μM PGE2 additional 10 min
Experimental: Inhibition of PGT activity or the provision of excess PGE2 results in the desensitization of the prostaglandin receptors […] and EP4 and thereby in a reduction in PGE2 signaling. An important second messenger for PGE2 is intracellular cAMP resulting from activation of either EP2 or EP4 receptor by PGE2. Thus, the hypothesis that excess PGE2 results in reduced PG signaling in human granulosa cells was tested. MGCs were incubated with 10 μM PGE2 for 10 min or pretreated with 10 μM PGE2 for 10 min, washed and then treated with 10 μM PGE2 for additional 10 min cAMP levels were measured in the cell lysate and was normalized to total protein content.

EP4 receptor = EP4 receptor mRNA expression in FSH-pretreated MGCs; format: cell-based, human; conditions: 10 μM PGE2, 24 hours
[7] = test system: whole ovarian PGT transcripts; test: Whole ovarian PGT transcripts in PMSG-primed/hCG-triggered immature mouse superovulation model; format: in vivo; conditions: PMSG for 48 hours
[8] = Homo sapiens, read-out: increase in PGT transcripts (fold induction)

T1 sequence (Q9EPT5 whole entry): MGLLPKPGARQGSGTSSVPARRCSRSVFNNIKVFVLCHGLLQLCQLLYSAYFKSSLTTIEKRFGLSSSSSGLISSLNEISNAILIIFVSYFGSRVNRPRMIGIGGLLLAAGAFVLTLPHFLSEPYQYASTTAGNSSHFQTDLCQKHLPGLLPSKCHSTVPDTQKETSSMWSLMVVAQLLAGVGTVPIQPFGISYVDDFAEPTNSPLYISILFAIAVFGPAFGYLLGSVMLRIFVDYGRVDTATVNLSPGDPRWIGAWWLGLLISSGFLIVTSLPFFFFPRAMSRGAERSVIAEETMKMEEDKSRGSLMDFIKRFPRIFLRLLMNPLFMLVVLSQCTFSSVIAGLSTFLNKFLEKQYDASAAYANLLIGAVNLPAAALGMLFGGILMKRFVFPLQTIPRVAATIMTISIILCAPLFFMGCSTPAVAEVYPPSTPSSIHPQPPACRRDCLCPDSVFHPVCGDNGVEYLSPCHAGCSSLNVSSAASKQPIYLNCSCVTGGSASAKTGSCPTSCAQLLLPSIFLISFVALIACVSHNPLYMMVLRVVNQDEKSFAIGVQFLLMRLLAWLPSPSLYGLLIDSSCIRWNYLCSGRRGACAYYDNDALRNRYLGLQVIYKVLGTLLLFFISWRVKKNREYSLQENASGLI

Cc1c(C2(c3cc(Br)c(O)c(Br)c3C)OS(=O)(=O)c3ccccc32)cc(Br)c(O)c1Br [BCG, Bromocresol Green]
increase in the media concentration of PGE2 relative to controls (PGT [1]; co-treatment hCG 1U/ml + BCG 50 mM, 24 hours): ~3 fold | basal media concentration of PGE2 (PGT [1]; no hCG): without effect | ovarian morphology (PGT [2]; hCG+BCG 350 mg/kg, 16 hours after hCG): un-ruptured follicles with entrapped oocytes | ovulation (PGT [3]; BCG at 500 and 350 mg/kg with hCG, 16 hours): complete blockade of ovulation | No. ova/ovulating mice (Mean ± SEM) (PGT [3]; hCG + BCG 250 mg/kg, 16 hours): 58.4 ± 7.4 | Range of oocytes in ovulating mice (PGT [3]; hCG + BCG 250 mg/kg, 16 hours): 12-61 | No. ova/ovulating mice (Mean ± SEM) (PGT [3]; hCG + BCG 300 mg/kg, 16 hours): 1.3* | Range of oocytes in ovulating mice (PGT [3]; hCG + BCG 300 mg/kg, 16 hours): 1-2 | No. ova/ovulating mice (Mean ± SEM) (PGT [3]; hCG + BCG 350 mg/kg, 16 hours): 0* | No. ova/ovulating mice (Mean ± SEM) (PGT [3]; hCG + BCG 500 mg/kg, 16 hours): 0*

O=S(=O)(O)c1cc(N=C=S)ccc1C=Cc1ccc(N=C=S)cc1S(=O)(=O)O [DIDS, 4,4′-Diisothiocyanatostilbene-2,2′-disulfonic acid]
PGDH expression ([4]; addition of DIDS): not affected | downregulation of EP2 by hCG ([4]; addition of DIDS): abolished | reduction of FSHR mRNA in response to hCG ([4]; addition of DIDS): abolished | upregulation by hCG of COX-2 ([4]; addition of DIDS): inhibited | upregulation by hCG of EP4 ([4]; addition of DIDS): inhibited | upregulation by hCG of PGT ([4]; addition of DIDS): inhibited | expression of most of the ovulation related transcripts studied (except p450SCC and LHCGR) ([4]; ovaries of PMSG-primed/hCG+DIDS-treated mice): profound inhibition | serum progesterone levels [5]: significant reduction | ovarian morphology (PGT [2]; hCG+DIDS, 16 hours after hCG): numerous unruptured preovulatory follicles with entrapped oocytes | ovarian morphology (PGT [2]; hCG+DIDS, forty hours after hCG injection): still contained entrapped oocytes in preovulatory follicles | ovulated oocyte count (PGT [3]; different concentrations of DIDS at time of hCG, 16 hours): dose-dependent decrements | No. of oocytes in ovulating mice (PGT [3]; hCG + DIDS 5 mg/kg, 16 hours): 7-77 | No. ova/ovulating mice (Mean ± SEM) (PGT [3]; hCG + DIDS 5 mg/kg, 16 hours): 53.5 ± 5.1 | No. of oocytes in ovulating mice (PGT [3]; hCG + DIDS 10 mg/kg, 16 hours): 10-60 | No. ova/ovulating mice (Mean ± SEM) (PGT [3]; hCG + DIDS 10 mg/kg, 16 hours): 27.4 ± 6.8 | No. of oocytes in ovulating mice (PGT [3]; hCG + DIDS 20 mg/kg, 16 hours): 1-51 | No. ova/ovulating mice (Mean ± SEM) (PGT [3]; hCG + DIDS 20 mg/kg, 16 hours): 22 ± 6.8 | No. ova/ovulating mice (Mean ± SEM) (PGT [3]; hCG + DIDS 50 mg/kg, 16 hours): 9 | inhibition at 50 mg/kg (PGT [3]; mouse, read-out: inhibition of ovulation): 95.5% | cumulus state of COCs (PGT [6]; DIDS, 24 hours following treatment with hCG): compact cumulus | oocytes at GV (PGT [6]; hCG + DIDS): 100% (102/102) | oocytes at MI (PGT [6]; hCG + DIDS): 0% (0/102) | oocytes at MII (PGT [6]; hCG + DIDS): 0% (0/102) | cumulus state of COCs (PGT [6]; hCG and DIDS 50 mg/kg): compact cumulus | oocyte maturation stage (PGT [6]; hCG+DIDS-treated mice): immature and at the GV stage | cumuli of recovered cumulus-oocyte-complexes (PGT [6]; lower doses of DIDS): expanded normal-appearing cumuli | denuded oocytes from recovered cumulus-oocyte-complexes (PGT [6]; lower doses of DIDS): morphologically normal, mature (M2)

N#CC(=C(/N)Sc1ccccc1N)/C(C#N)=C(\N)Sc1ccccc1N [U0126]
FSK-induced upregulation of PGT expression (PGT transcripts in MGCs; pretreatment 10 μM for 1 hour): markedly inhibited | PMA-mediated upregulation of PGT transcripts (PGT transcripts in MGCs; pretreatment 10 μM for 1 hour, then PMA 20 nM 24 hours): markedly inhibited | hCG-induced upregulation of PGT expression (PGT transcripts in MGCs; pretreatment 10 μM for 1 hour): effectively abolished

C=C[C@@]1(C)CC(=O)[C@]2(O)[C@@]3(C)[C@@H](O)CCC(C)(C)[C@@H]3[C@H](O)[C@H](OC(C)=O)[C@@]2(C)O1 [FSK, forskolin]
fold induction at 10 µM (PGT transcripts in MGCs; [8]): 25

CCCCCCCCCCCCCC(=O)O[C@@H]1[C@@H](C)[C@@]2(O)[C@@H](C=C(CO)C[C@]3(O)C(=O)C(C)=C[C@@H]23)[C@@H]2C(C)(C)[C@]12OC(C)=O [PMA, phorbol myristate acetate]
fold induction at 0.02 µM (PGT transcripts in MGCs; [8]): 11

CCCCC[C@H](O)/C=C/[C@H]1[C@H](O)CC(=O)[C@@H]1C/C=C\CCCC(=O)O [PGE2, Prostaglandin E2]
intracellular cAMP in response to further PGE2 stimulation (EP receptor): significantly reduced accumulation of intracellular cAMP | EP4 receptor mRNA expression compared to controls (EP4 receptor): significant downregulation

O=S(=O)(NCCNC/C=C/c1ccc(Br)cc1)c1cccc2cnccc12 [H89]
FSK-induced upregulation of PGT expression (PGT transcripts in MGCs; pretreatment 10 μM for 1 hour): largely inhibited | hCG-induced upregulation of PGT expression (PGT transcripts in MGCs; pretreatment 10 μM for 1 hour): largely inhibited

Pregnant mare serum gonadotropin [PMSG]
level of PGT in the ovaries relative to control (saline) [7]: 2.3 folds

B1: amphiregulin (protein, UniProt P31955 100-248, looked up)
Amphiregulin: VIKPKKNKTEGEKSTEKPKRKKKGGKNGKGRRNKKKKNPCTAKFQNFCIHGECRYIENLEVVTCNCHQDYFGERCGEKSMKTHSEDDKDLSKIAVVAVTIFVSAIILAAIGIGIVITVHLWKRYFREYEGETEERRRLRQENGTVHAIA
induction of PGT expression (PGT transcripts in MGCs; FSH-pretreated MGCs exposed to AREG for 24 hours, vs vehicle (PBS)): 3 fold
